Reference: ChEMBL document CHEMBL4138232, “O2-(2,4-dinitrophenyl)diazeniumdiolates derivatives: Design, synthesis, cytotoxic evaluation and reversing MDR in MCF-7/ADR cells” (Eur J Med Chem, 2018)

Legend:
MCF7 = assay: Cytotoxicity against ADR-sensitive human MCF7 cells assessed as inhibition of cell viability after 48 hrs by MTT assay; format: cell-based; conditions: MCF7, 48 h
HCT-116 [1] = assay: Cytotoxicity against human HCT116 cells overexpressing GST-Pi assessed as inhibition of cell viability at 10 uM after 48 hrs by MTT assay relative to control; format: functional; conditions: HCT-116, 48 h
Homo sapiens = organism: Homo sapiens; assay: Inhibition of MDR in human MCF7/ADR cells assessed as potentiation of adriamycin-induced antiproliferative activity by measuring fold reduction in adriamycin IC50 at 10 uM after 48 hrs by MTT assay; format: cell-based
[2] = target: T1, Glutathione S-transferase P (Homo sapiens, UniProt P09211); assay: Prodrug activation in human HCT116 cells assessed as GST-Pi-mediated NO release at 5 uM by nitrate reductase assay; format: cell-based
T1 sequence (P09211 whole entry): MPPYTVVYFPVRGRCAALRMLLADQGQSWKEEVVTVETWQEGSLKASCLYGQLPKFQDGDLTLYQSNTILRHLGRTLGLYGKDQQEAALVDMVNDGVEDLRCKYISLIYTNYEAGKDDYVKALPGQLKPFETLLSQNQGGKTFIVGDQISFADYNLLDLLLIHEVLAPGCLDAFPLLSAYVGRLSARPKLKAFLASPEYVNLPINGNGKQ

[3] = Selectivity ratio of IC50 for human U2OS cells to IC50 for human MDA-MB-231 cells; format: functional
[4] = Selectivity ratio of IC50 for human HCT116 cells to IC50 for human MDA-MB-231 cells; format: functional
[5] = Cytotoxicity against ADR-sensitive human MCF7 cells assessed as inhibition of cell viability at 10 uM after 48 hrs by MTT assay relative to control; format: cell-based; conditions: read-out: INH
A549 = assay: Antiproliferative activity against human A549 cells after 48 hrs by MTT assay relative to control; format: functional, cell-based; conditions: A549, 48 h
MCF-10A = assay: Antiproliferative activity against human MCF10A cells after 48 hrs by MTT assay relative to control; format: cell-based
U2OS = assay: Antiproliferative activity against human U2OS cells after 48 hrs by MTT assay relative to control; format: functional, cell-based
[6] = Selectivity ratio of IC50 for human MCF10A cells to IC50 for human MDA-MB-231 cells; format: toxicity; conditions: MCF10A cells versus MDA-MB-231 cells, read-out: Ratio IC50
[7] = Selectivity ratio of IC50 for human A549 cells to IC50 for human MDA-MB-231 cells; format: functional
MDA-MB-231 = assay: Antiproliferative activity against human MDA-MB-231 cells after 48 hrs by MTT assay relative to control; format: functional, cell-based; conditions: MDA-MB-231, 48 h
[8] = target: T1, Glutathione S-transferase P; assay: Prodrug activation in human HCT116 cells assessed as GST-Pi-mediated NO release at 5 uM after 24 hrs in presence of NO scavenger carboxy-PTIO by nitrate reductase assay; format: cell-based
HCT-116 [9] = assay: Antiproliferative activity against human HCT116 cells after 48 hrs by MTT assay relative to control; format: functional, cell-based; conditions: HCT-116, 48 h
[10] = target: T1, Glutathione S-transferase P; assay: Prodrug activation in human HCT116 cells assessed as GST-Pi-mediated NO release at 5 uM after 24 hrs in presence of GST-Pi inhibitor etacrynic acid by nitrate reductase assay; format: cell-based
[11] = target: T1, Glutathione S-transferase P; assay: Prodrug activation in human HCT116 cells assessed as GST-Pi-mediated NO release at 5 uM after 24 hrs by nitrate reductase assay; format: cell-based
HCT-116 [12] = assay: Growth inhibition of human HCT116 cells at 5 uM after 24 hrs in presence of GST-Pi inhibitor etacrynic acid by MTT assay relative to control; format: functional; conditions: HCT-116, 24 h, read-out: GI
HCT-116 [13] = assay: Growth inhibition of human HCT116 cells at 5 uM after 24 hrs by MTT assay relative to control; format: functional; conditions: HCT-116, 24 h, read-out: GI
HCT-116 [14] = assay: Growth inhibition of human HCT116 cells at 5 uM after 24 hrs in presence of NO scavenger carboxy-PTIO by MTT assay relative to control; format: functional; conditions: HCT-116, 24 h, read-out: GI
[15] = Glutathione reactivity in pH 7.4 PBS buffer assessed as parent compound remaining at 0.1 mM after 1 hr in presence of 2 mM GSH by HPLC analysis; format: physicochemical; conditions: PBS buffer with 2 mM glutathione (GSH), read-out: Stability

Drug metabolism [2] | IC50 (A549) | IC50 (U2OS) | IC50 (MDA-MB-231) | Drug metabolism [8] | IC50 (HCT-116 [9]) | Drug metabolism [10] | Drug metabolism [11] | SMILES | IC50 (MCF7) | inhibition at 10 µM (HCT-116 [1]) | fold change (FC) (Homo sapiens) | Ratio IC50 [3] | Ratio IC50 [4] | cytotoxicity at 48 h, 10 µM [5] | IC50 (MCF-10A) | selectivity ratio [6] | Ratio IC50 [7] | other results
Dose-dependent effect | 1.46 µM | 2.19 µM | 4.4 µM | Metabolite_Notdetected | 1.86 µM | Metabolite_Notdetected | Metabolite_Detected | CCCCOc1ccc(C2CC(c3cccc(Oc4cc(O/N=[N+](\[O-])N5CCOCC5)c([N+](=O)[O-])cc4[N+](=O)[O-])c3)=NN2C(C)=O)cc1OC (stereo unspecified) | 19.2 µM | 75.7% | 63 | 0.5 | 0.4 | 23.6% | 15.2 µM | 3.4 | 0.3 | 
Dose-dependent effect | 1.97 µM | 2.46 µM | 2.9 µM | Metabolite_Notdetected | 2.7 µM | Metabolite_Notdetected |  | CC(=O)N1N=C(c2cccc(Oc3cc(O/N=[N+](\[O-])N4CCOCC4)c([N+](=O)[O-])cc3[N+](=O)[O-])c2)CC1c1ccc(N(C)C)cc1 (stereo unspecified) | 22 µM | 78.3% | 33.4 | 0.8 | 0.9 | 21.9% | 16.4 µM | 5.6 | 0.7 | 
 | 4.7 µM | 7.49 µM | 5.68 µM | Metabolite_Notdetected | 4.14 µM | Metabolite_Notdetected |  | COc1ccc(C2CC(c3cccc(Oc4cc(O/N=[N+](\[O-])N5CCCCC5)c([N+](=O)[O-])cc4[N+](=O)[O-])c3)=NN2C(C)=O)cc1 (stereo unspecified) | 27.6 µM | 80.4% | 61.9 | 1.7 | 0.7 | 15.1% | 46.9 µM | 8.2 | 1.5 | inhibition of growth at 5 µM (HCT-116 [12]): 14.8%; inhibition of growth at 5 µM (HCT-116 [13]): 67.9%
 | 1.15 µM | 7.64 µM | 0.94 µM | Metabolite_Notdetected | 1.06 µM | Metabolite_Notdetected | Metabolite_Detected | COc1cc(C2CC(c3cccc(Oc4cc(O/N=[N+](\[O-])N5CCCCC5)c([N+](=O)[O-])cc4[N+](=O)[O-])c3)=NN2C(C)=O)cc(OC)c1OC (stereo unspecified) | 17.7 µM | 80.8% | 75.3 | 8.1 | 1.1 | 26.4% | 10.5 µM | 11.2 | 1.2 | inhibition of growth at 5 µM (HCT-116 [14]): 7.1%; remaining at 1 h, 100 µM [15]: 80%; inhibition of growth at 5 µM (HCT-116 [13]): 74.9%
Dose-dependent effect | 1.87 µM | 3.86 µM | 3.85 µM | Metabolite_Notdetected | 4.44 µM | Metabolite_Notdetected |  | CC(=O)N1N=C(c2cccc(Oc3cc(O/N=[N+](\[O-])N4CCOCC4)c([N+](=O)[O-])cc3[N+](=O)[O-])c2)CC1c1ccc(C)cc1 (stereo unspecified) | 21.6 µM | 77.8% | 49.7 | 1 | 1.1 | 20.2% | 11.9 µM | 3.1 | 0.5 | 
 | 7.31 µM | 9.43 µM | 4.57 µM | Metabolite_Notdetected | 1.3 µM | Metabolite_Notdetected | Metabolite_Detected | CC(=O)N1N=C(c2cccc(Oc3cc(O/N=[N+](\[O-])N4CCCCC4)c([N+](=O)[O-])cc3[N+](=O)[O-])c2)CC1c1ccc(C)cc1 (stereo unspecified) | 22.8 µM | 75.9% | 18 | 2.1 | 0.3 | 5.16% | 70.9 µM | 15.5 | 1.6 | 
Dose-dependent effect | 6.11 µM | 6.13 µM | 1.44 µM |  | 6.46 µM |  |  | COc1cc(C2CC(c3cccc(Oc4cc(O/N=[N+](\[O-])N5CCOCC5)c([N+](=O)[O-])cc4[N+](=O)[O-])c3)=NN2C(C)=O)cc(OC)c1OC (stereo unspecified) | 44.3 µM | 76.2% | 1.53 | 4.2 | 6.5 | 13.3% | 59.4 µM | 41.2 | 4.2 | 
Dose-dependent effect | 1.54 µM | 2.46 µM | 0.66 µM | Metabolite_Notdetected | 1.27 µM | Metabolite_Notdetected | Metabolite_Detected | COc1ccc(C2CC(c3cccc(Oc4cc(O/N=[N+](\[O-])N5CCOCC5)c([N+](=O)[O-])cc4[N+](=O)[O-])c3)=NN2C(C)=O)cc1OC (stereo unspecified) | 22.7 µM | 81.2% | 14.3 | 3.7 | 1.9 | 13% | 10.1 µM | 15.3 | 2.3 | 
Dose-dependent effect | 2.86 µM | 3.69 µM | 2.11 µM |  | 5.58 µM |  |  | COc1ccc(C2CC(c3cccc(Oc4cc(O/N=[N+](\[O-])N5CCOCC5)c([N+](=O)[O-])cc4[N+](=O)[O-])c3)=NN2C(C)=O)cc1 (stereo unspecified) | 31.9 µM | 79.9% | 56.6 | 1.7 | 2.6 | 21.2% | 12.9 µM | 6.1 | 1.3 | 
